The data set is described as follows: gradient 5% acetonitrile 3 min, to 50% in 2 min, to 85% in 15 min, held 3 min, 100 µL/min. The note with it: column: Zorbax Extend-C18 2.1 x 50 mm; eluents: water / acetonitrile, 0.1% formic acid. An outline of the steps: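 Pure standards were run in mixtures of ~100 molecules by HPLC coupled to a quadrupole time-of-flight mass spectrometer. The column was a Zorbax Extend-C18 (2.1 × 50 mm, 1.8 μm) at 100 μL/min, with water and acetonitrile each containing 0.1% formic acid, in positive and negative ionization mode. Dead and dwell volumes were 40 μL and 900 μL. Retention time was taken from computationally picked adduct peaks, each manually inspected, with data collected over 3 months.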
As to `O=C(Nc1cnc(N2CCN(c3ccccc3Cl)CC2)c(C(=O)O)c1)c1cccs1`, the RP-LC retention time worked out at 910 s.
In the case of `COc1ccc(S(=O)(=O)N2CCCC(C(=O)N3CCN(Cc4ccccc4)CC3)C2)cc1Cl` (centres undefined), the RP-LC retention time was 707 s.
Turning to `COc1ccc(Cl)cc1NC(=O)Cn1c(N2CCOCC2)nc(C)cc1=O`, the RP-LC retention time is 772 s.
`O=C(C1=CCN(Cc2ccc(F)cc2)CC1)N1CCN(c2ccccc2Cl)CC1` displayed an RP-LC retention time of 723 s.
As for `CN1C(=O)c2cccnc2Sc2cc(NC(=O)C3CCCC3)ccc21`, the RP-LC retention time is 749 s.
In turn, `Cc1nn(CC(=O)N2CCCC2)c(=O)c2c(-n3cccc3)n(-c3cccc(F)c3)nc12` yielded an RP-LC retention time of 876 s.
With `O=C(CCc1nc2ccccc2n(CC(=O)Nc2ccc3c(c2)OCCO3)c1=O)NCc1ccccc1`, the RP-LC retention time is 782 s.
`O=C(c1nnc(-c2ccc(S(=O)(=O)N3CCCCC3)cc2)o1)N1CCC(N2CCCCC2)CC1` returned an RP-LC retention time of 654 s.
To `CN(CC1CCCO1)S(=O)(=O)c1ccc(C(=O)Nc2sc3c(c2C#N)CCC3)cc1` (centres undefined) belongs 957 s; to `Cc1nnc(-c2cc(C)n(CC(=O)Nc3ccc(F)cc3)c2C)o1`, 754 s; to `O=C(c1ccc(F)c(F)c1)N1CCN(CCn2cccn2)CC1`, 543 s.
The molecule `NS(=O)(=O)c1ccc(NC(=O)CCCN2C(=O)c3cccc4cccc(c34)C2=O)cc1` registered an RP-LC retention time of 694 s.
The molecule `CCC(CC)C(=O)N1CCC2(CC1)NCc1ccccc1-n1ccnc12` showed an RP-LC retention time of 580 s.
The value for `O=C(Cc1ccccc1)N1CCCCC1c1nc(-c2cnccn2)no1` (centres undefined) was 812 s; that for `CC(C)CCNC(=O)C1(C)CN(S(=O)(=O)c2ccccc2)CC(=O)N1Cc1ccc(Cl)cc1` (centres undefined) was 1040 s; that for `COCCn1ncc(N2CCCC(CC(=O)O)C2)cc1=O` (centres undefined) was 613 s.
The value for `Cc1ccc(CN2C(=O)C3CCCCC3C2=O)cc1S(=O)(=O)N1CCN(c2ccccn2)CC1` (centres undefined) was 724 s; that for `CC(C)C(=O)Nc1ccc(-n2cnc(C(=O)NCc3ccc(F)cc3)c2)nc1` was 753 s; that for `CC(C)c1nc(-n2cccc2)sc1C(=O)NC1CC1` was 985 s.
With `O=C(O)CCCCC1SCC2NC(=O)NC21` (centres undefined), the RP-LC retention time is 634 s.
Take `Cc1ccc(-c2noc(C3CCCN3S(=O)(=O)c3ccc(C(C)C)cc3)n2)cc1` (centres undefined): the RP-LC retention time came out at 1310 s.
`O=C(NCc1ccccn1)c1c2c(nc3ccccc13)C(=O)N(C1CCCCC1)C2` gave an RP-LC retention time of 626 s.
The value for `CC(C)n1c(=O)sc2cc(S(=O)(=O)N3CCC(C(=O)NCc4cccs4)CC3)ccc21` was 885 s.
`COc1ccc(Cn2nccc2NC(=O)COc2ccc(Cl)cc2)cc1` came in with an RP-LC retention time of 882 s.
The value for `Cc1nc2cc(-c3noc(-c4ccc(Cl)cc4)n3)ccc2n(C)c1=O` was 872 s.
The molecule `COc1ccc(OCc2nnc3sc(-c4cc(CC(C)C)[nH]n4)nn23)cc1` yielded an RP-LC retention time of 917 s.
`Cc1ccc(-c2nc(-c3ccc4c(c3)nc(C)c(=O)n4C)no2)cc1C` displayed an RP-LC retention time of 1180 s.
To `Cn1c(CCNC(=O)c2cccc(C#N)c2)nc2cccnc21` belongs 601 s; to `COc1ccccc1N1CCN(CCNC(=O)c2c(F)cccc2F)CC1`, 567 s.
With `COc1ccc(N2CC(c3nc(-c4ccc(OC)c(OC)c4)no3)CC2=O)cc1Cl` (centres undefined), the RP-LC retention time was found to be 884 s.
With `O=C1NC2(CCN(C(=O)c3ccccc3Cl)CC2)N=C1c1cccc(F)c1`, the RP-LC retention time is 776 s.
In the case of `Cc1ccccc1Cc1noc(-c2nc(-c3ccccc3F)no2)n1`, the RP-LC retention time amounted to 1180 s.
To `Cc1cccc(CN2CCN(CC(=O)N3CCN(Cc4ccccc4)CC3)C(=O)C2=O)c1` belongs 608 s.
`CCN1C(=O)Cc2c(C)nc(-c3ccc(OC)cc3)nc21` returned an RP-LC retention time of 880 s.
Take `CC(C)NC(=O)Cn1nc2c3cc(-c4ccc(C(C)C)cc4)nn3ccn2c1=O`: the RP-LC retention time worked out at 911 s.
To `O=C(CSc1nc2ccccc2[nH]1)Nc1nc2ccccc2s1` belongs 577 s; to `Cc1noc(C2(NC(=O)c3ccc(C(F)(F)F)cc3)CCCCC2)n1`, 711 s.
The value for `O=C(Nc1ccccc1)NC1CCN(C(=O)N2C[C@H]3C[C@H](C2)[C@H]2CCCC(=O)N2C3)CC1` was 654 s; that for `CC(=O)N(C1CC1)C1CCOC2(CCN(C(=O)c3ccsc3)CC2)C1` (centres undefined) was 673 s.
In turn, `Cc1cc(C)cc(C(=O)N2CCN(c3nc(C)cc(N4CCCCC4)n3)CC2)c1` returned an RP-LC retention time of 765 s.
The molecule `COc1ccc(OC)c(NC(=O)C2CCCN2S(=O)(=O)c2ccc3c(c2)CC(C)N3C(C)=O)c1` (centres undefined) registered an RP-LC retention time of 863 s.
The molecule `O=C(CN1CCN(c2ccc(F)cc2)C1=O)NCCCN1CCCC1=O` showed an RP-LC retention time of 611 s.
In the case of `O=C(Cn1nc2nc(N3CCCC3)ccn2c1=O)NCc1ccc(Cl)cc1`, the RP-LC retention time was 690 s.
Consider `Cc1ccc(C(C)NC(=O)Cn2cc(-c3noc(-c4ccc(F)cc4)n3)nc2C)cc1` (centres undefined), for which the RP-LC retention time worked out at 907 s.
The value for `Cc1cc(NCC2CCCO2)n2nc(-c3ccc(Cl)cc3)c(C)c2n1` (centres undefined) was 723 s.
`CCN1CCN(CCNC(=O)c2cc(=O)n3c(nc4ccccc43)s2)CC1` showed an RP-LC retention time of 604 s.
`CC(C)NC(=O)N1CCN(Cc2nc3cc(C(C)(C)C)ccc3o2)CC1`: the RP-LC retention time worked out at 712 s.
To `O=C(c1csc(Nc2ccccc2)n1)N1CCN(c2ccccc2F)CC1` belongs 911 s.
As for `O=c1ccc(-c2ccccc2)nn1CCc1nc(-c2ccccc2Br)no1`, the RP-LC retention time was 965 s.
To `CCN(CCN(C)C)C(=O)c1cc2c(s1)N(CC)CCCC2` belongs 599 s.
The value for `CC1CN=C2C=C(N3CCN(S(=O)(=O)Cc4cccc(Cl)c4)CC3)N=CN21` (centres undefined) was 627 s.
The value for `Cc1nc(N2CCN(C(=O)COc3ccc(Cl)cc3Cl)CC2)cc(-n2cccn2)n1` was 894 s; that for `O=C(Nc1ccc(C2(C(=O)N3CCN(c4ccccn4)CC3)CCC2)cc1)C1CC1` was 614 s.
Molecule `Cc1ccccc1CC(=O)N1C[C@H](c2nc(-c3ccccc3)no2)[C@@H](C)C1` registered an RP-LC retention time of 1070 s.
In turn, `CCc1cc(=O)n(CC(=O)Nc2ccc(OC)cc2)c(N2CCOCC2)n1` registered an RP-LC retention time of 699 s.
As for `COC1CCC12CCN(Cc1cccc(C#N)c1)CC2` (centres undefined), the RP-LC retention time amounted to 597 s.
Molecule `Cc1ccc(NC(=O)N2CCCC2c2c(C)noc2C)cc1` (centres undefined) displayed an RP-LC retention time of 728 s.
As to `CCc1nc2cc(-c3noc(-c4c(F)cccc4Cl)n3)ccc2o1`, the RP-LC retention time came out at 1190 s.
Consider `COc1ccccc1N1CC(c2nc3ccccc3n2CC(=O)N(C(C)C)C(C)C)CC1=O` (centres undefined), for which the RP-LC retention time is 752 s.
To `Cc1ccc(CNC(=O)N2CCCC2c2nc(-c3ccccc3)no2)cc1` (centres undefined) belongs 994 s; to `Clc1ccc(-c2nc(NCc3cccnc3)c3ccccc3n2)cc1`, 601 s.
`O=C(c1ccc(F)c(F)c1)N1CCC(n2c(-c3ccco3)nc3cccnc32)C1` (centres undefined) returned an RP-LC retention time of 776 s.
Regarding `CCCNC(=O)C1=Cc2cc(Cl)cc(OC)c2OC=C1`, the RP-LC retention time came out at 977 s.
Take `Cn1nc(-c2nnc(-c3ccc(F)cc3)o2)c2c1CCN(C(=O)Nc1ccc(Cl)cc1)C2`: the RP-LC retention time was 936 s.
The molecule `CC(NC(=O)CCc1ccccc1)C(=O)Nc1nc2ccccc2[nH]1` (centres undefined) gave an RP-LC retention time of 654 s.
`COc1ccccc1N1CCN(C(=O)c2cc(S(=O)(=O)N3CCCCC3)cn2C)CC1`: the RP-LC retention time worked out at 893 s.
On to `COCCCn1c(=O)c2ccccc2n(Cc2nc(-c3ccc4c(c3)OCO4)no2)c1=O`, for which the RP-LC retention time was determined as 954 s.
On to `CC(C)NC(=O)C1Cc2cc(C(F)(F)F)ccc2N2CCN(c3ccccc3)CC12` (centres undefined), for which the RP-LC retention time came out at 1100 s.
`O=C(CC1CCN(C(=O)Nc2ccc3c(c2)OCO3)CC1)N1CCCCC1` displayed an RP-LC retention time of 712 s.
Regarding `CCc1ccc(S(=O)(=O)N2CCC(c3noc(-c4cccc(OC)c4)n3)CC2)cc1`, the RP-LC retention time was 1240 s.
To `O=[N+]([O-])c1c(NCCO)cc(N2CCN(c3ccccn3)CC2)c2nonc12` belongs 579 s.
Turning to `CCCn1ccc2oc(C)c(C(=O)NC(C)c3ccc(F)cc3)c2c1=O` (centres undefined), the RP-LC retention time worked out at 1040 s.
Molecule `CCC(=O)N1CCCCCNC(=O)[C@@H]2CCC[C@@H]21` displayed an RP-LC retention time of 621 s.
The value for `COc1ccc(-c2nnc(N3CCC(C(=O)NCc4cc(F)cc(F)c4)CC3)o2)cc1` was 899 s; that for `Cc1cc(N2CCN(c3ccccn3)CC2)n2nc(C(F)(F)F)nc2n1` was 604 s.
With `Cc1ccc(CNC(=O)CCCN2C(=O)CCn3nc(-c4cn(C)c5ccccc45)cc32)o1`, the RP-LC retention time worked out at 815 s.
The value for `O=C(NCc1cccnc1)C1CCN(S(=O)(=O)c2ccc(-c3noc(C4CC4)n3)cc2)CC1` was 659 s; that for `O=C1COc2ccccc2N1Cc1nc(-c2ccc3c(c2)ncn3C2CCCC2)no1` was 766 s.
Turning to `COc1ccc(CN2CC3(CCN(S(=O)(=O)c4cn(C)cn4)CC3)C2=O)cc1`, the RP-LC retention time was 688 s.

(Values after the METLIN SMRT retention time set (Domingo-Almenara et al. 2019).)
